According to EP0973746B1, “SUBSTITUTED 3-CYANO QUINOLINES” (Wyeth Holdings Corporation, priority 1997, dated 1998):
Converted amounts (≈) assume the structure as drawn.

tested on: PC3; assay: Inhibition of cancer cell growth as measured by cell number, PC3; format: cell-based; conditions: Homo sapiens, PC-3, 48 h, read-out: IC50 PC3

SMILES	IC50 [µg/mL]
COc1cc2ncc(C#N)c(Oc3cccc(Br)c3)c2cc1OC [Example 49, 4-(3-Bromophenoxy)-6,7-dimethoxy-3-quinolinecarbonitrile]	> 100
COc1cc2ncc(C#N)c(Nc3cccc(CO)c3)c2cc1OC [Example 48, 4-[(3-(hydroxymethyl)phenyl)amino]-6,7-dimethoxy-3-quinolinecarbonitrile]	> 100

tested on: A27805; assay: Inhibition of cancer cell growth as measured by cell number, A27805; format: cell-based; conditions: Homo sapiens, 48 h, read-out: IC50 A27805

SMILES	IC50 [µg/mL]
COc1cc2ncc(C#N)c(Oc3cccc(Br)c3)c2cc1OC [Example 49, 4-(3-Bromophenoxy)-6,7-dimethoxy-3-quinolinecarbonitrile]	34.8 (≈ 90.2 µM)

tested on: LX1; assay: Inhibition of cancer cell growth as measured by cell number, LX1; format: cell-based; conditions: Homo sapiens, LX-1, 48 h, read-out: IC50 LX1

SMILES	IC50 [µg/mL]
COc1cc2ncc(C#N)c(Oc3cccc(Br)c3)c2cc1OC [Example 49, 4-(3-Bromophenoxy)-6,7-dimethoxy-3-quinolinecarbonitrile]	> 100
COc1cc2ncc(C#N)c(Nc3cccc(CO)c3)c2cc1OC [Example 48, 4-[(3-(hydroxymethyl)phenyl)amino]-6,7-dimethoxy-3-quinolinecarbonitrile]	> 100

tested on: SW948; assay: Inhibition of cancer cell growth as measured by cell number, SW948; format: cell-based; conditions: Homo sapiens, SW948, 48 h, read-out: IC50 SW948

SMILES	IC50 [µg/mL]
COc1cc2ncc(C#N)c(Oc3cccc(Br)c3)c2cc1OC [Example 49, 4-(3-Bromophenoxy)-6,7-dimethoxy-3-quinolinecarbonitrile]	> 100
COc1cc2ncc(C#N)c(Nc3cccc(CO)c3)c2cc1OC [Example 48, 4-[(3-(hydroxymethyl)phenyl)amino]-6,7-dimethoxy-3-quinolinecarbonitrile]	> 100

tested on: B7474; assay: Inhibition of cancer cell growth as measured by cell number, B7474; format: cell-based; conditions: Homo sapiens, 48 h, read-out: IC50 B7474

SMILES	IC50 [µg/mL]
COc1cc2ncc(C#N)c(Oc3cccc(Br)c3)c2cc1OC [Example 49, 4-(3-Bromophenoxy)-6,7-dimethoxy-3-quinolinecarbonitrile]	87.1 (≈ 226 µM)

tested on: T47D; assay: Inhibition of cancer cell growth as measured by cell number, T47D; format: cell-based; conditions: Homo sapiens, 48 h, read-out: IC50 T47D

SMILES	IC50 [µg/mL]
COc1cc2ncc(C#N)c(Oc3cccc(Br)c3)c2cc1OC [Example 49, 4-(3-Bromophenoxy)-6,7-dimethoxy-3-quinolinecarbonitrile]	71.2 (≈ 185 µM)
COc1cc2ncc(C#N)c(Nc3cccc(CO)c3)c2cc1OC [Example 48, 4-[(3-(hydroxymethyl)phenyl)amino]-6,7-dimethoxy-3-quinolinecarbonitrile]	> 100

tested on: CCL228; assay: Inhibition of cancer cell growth as measured by cell number, CCL228; format: cell-based; conditions: Homo sapiens, 48 h, read-out: IC50 CCL228

SMILES	IC50 [µg/mL]
COc1cc2ncc(C#N)c(Oc3cccc(Br)c3)c2cc1OC [Example 49, 4-(3-Bromophenoxy)-6,7-dimethoxy-3-quinolinecarbonitrile]	99 (≈ 257 µM)
COc1cc2ncc(C#N)c(Nc3cccc(CO)c3)c2cc1OC [Example 48, 4-[(3-(hydroxymethyl)phenyl)amino]-6,7-dimethoxy-3-quinolinecarbonitrile]	> 100

tested on: A549; assay: Inhibition of cancer cell growth as measured by cell number, A549; format: cell-based; conditions: Homo sapiens, A549, 48 h, read-out: IC50 A549

SMILES	IC50 [µg/mL]
COc1cc2ncc(C#N)c(Oc3cccc(Br)c3)c2cc1OC [Example 49, 4-(3-Bromophenoxy)-6,7-dimethoxy-3-quinolinecarbonitrile]	> 100
COc1cc2ncc(C#N)c(Nc3cccc(CO)c3)c2cc1OC [Example 48, 4-[(3-(hydroxymethyl)phenyl)amino]-6,7-dimethoxy-3-quinolinecarbonitrile]	> 100

tested on: LNCAP; assay: Inhibition of cancer cell growth as measured by cell number, LNCAP; format: cell-based; conditions: Homo sapiens, 48 h, read-out: IC50 LNCAP

SMILES	IC50 [µg/mL]
COc1cc2ncc(C#N)c(Oc3cccc(Br)c3)c2cc1OC [Example 49, 4-(3-Bromophenoxy)-6,7-dimethoxy-3-quinolinecarbonitrile]	52.4 (≈ 136 µM)
COc1cc2ncc(C#N)c(Nc3cccc(CO)c3)c2cc1OC [Example 48, 4-[(3-(hydroxymethyl)phenyl)amino]-6,7-dimethoxy-3-quinolinecarbonitrile]	40.6 (≈ 121 µM)

tested on: SKBR3; assay: Inhibition of cancer cell growth as measured by cell number, SKBR3; format: cell-based, human; conditions: Homo sapiens, SK-BR-3, 48 h, read-out: IC50 SKBR3, cell number, Sulforhodamine B, 48 hours exposure; Table 7;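 further: SK-BR-3 cells were selected as a line overexpressing HER2/neu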
Text: (§1) The cell lines were chosen since they overexpressed epidermal growth factor receptor (EGFR) (i.e. A431) or HER2/neu (SKBR3), or had little to no expression of the these receptors (SW620, LOX, MCF7).

SMILES	IC50 [µg/mL]
COc1cc2ncc(C#N)c(Oc3cccc(Br)c3)c2cc1OC [Example 49, 4-(3-Bromophenoxy)-6,7-dimethoxy-3-quinolinecarbonitrile]	74.6 (≈ 194 µM)
COc1cc2ncc(C#N)c(Nc3cccc(CO)c3)c2cc1OC [Example 48, 4-[(3-(hydroxymethyl)phenyl)amino]-6,7-dimethoxy-3-quinolinecarbonitrile]	64.5 (≈ 192 µM)

tested on: A2780DDP; assay: Inhibition of cancer cell growth as measured by cell number, A2780DDP; format: cell-based; conditions: Homo sapiens, 48 h, read-out: IC50 A2780DDP

SMILES	IC50 [µg/mL]
COc1cc2ncc(C#N)c(Oc3cccc(Br)c3)c2cc1OC [Example 49, 4-(3-Bromophenoxy)-6,7-dimethoxy-3-quinolinecarbonitrile]	51.8 (≈ 135 µM)

tested on: NEC; assay: Inhibition of cancer cell growth as measured by cell number, NEC; format: cell-based; conditions: Homo sapiens, 48 h, read-out: IC50 NEC

SMILES	IC50 [µg/mL]
COc1cc2ncc(C#N)c(Oc3cccc(Br)c3)c2cc1OC [Example 49, 4-(3-Bromophenoxy)-6,7-dimethoxy-3-quinolinecarbonitrile]	85.3 (≈ 221 µM)
COc1cc2ncc(C#N)c(Nc3cccc(CO)c3)c2cc1OC [Example 48, 4-[(3-(hydroxymethyl)phenyl)amino]-6,7-dimethoxy-3-quinolinecarbonitrile]	> 100

tested on: CX1; assay: Inhibition of cancer cell growth as measured by cell number, CX1; format: cell-based; conditions: Homo sapiens, CX-1, 48 h, read-out: IC50 CX1

SMILES	IC50 [µg/mL]
COc1cc2ncc(C#N)c(Oc3cccc(Br)c3)c2cc1OC [Example 49, 4-(3-Bromophenoxy)-6,7-dimethoxy-3-quinolinecarbonitrile]	98.4 (≈ 256 µM)
COc1cc2ncc(C#N)c(Nc3cccc(CO)c3)c2cc1OC [Example 48, 4-[(3-(hydroxymethyl)phenyl)amino]-6,7-dimethoxy-3-quinolinecarbonitrile]	59.2 (≈ 177 µM)

tested on: LS174T; assay: Inhibition of cancer cell growth as measured by cell number, LS174T; format: cell-based; conditions: Homo sapiens, 48 h, read-out: IC50 LS174T

SMILES	IC50 [µg/mL]
COc1cc2ncc(C#N)c(Oc3cccc(Br)c3)c2cc1OC [Example 49, 4-(3-Bromophenoxy)-6,7-dimethoxy-3-quinolinecarbonitrile]	> 100

tested on: CACO2; assay: Inhibition of cancer cell growth as measured by cell number, CACO2; format: cell-based; conditions: Homo sapiens, Caco-2, 48 h, read-out: IC50 CACO2

SMILES	IC50 [µg/mL]
COc1cc2ncc(C#N)c(Oc3cccc(Br)c3)c2cc1OC [Example 49, 4-(3-Bromophenoxy)-6,7-dimethoxy-3-quinolinecarbonitrile]	42.1 (≈ 109 µM)

tested on: A431; assay: Inhibition of cancer cell growth as measured by cell number, A431; format: cell-based, human; conditions: Homo sapiens, A-431, 48 h, read-out: IC50 A431, cell number, Sulforhodamine B, 48 hours exposure; Table 6;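 further: human A431 line, picked because it overexpresses epidermal growth factor receptor (EGFR)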
Text: as §1

SMILES	IC50 [µg/mL]
COc1cc2ncc(C#N)c(Oc3cccc(Br)c3)c2cc1OC [Example 49, 4-(3-Bromophenoxy)-6,7-dimethoxy-3-quinolinecarbonitrile]	100 (≈ 260 µM)

tested on: HTB161; assay: Inhibition of cancer cell growth as measured by cell number, HTB161; format: cell-based; conditions: Homo sapiens, 48 h, read-out: IC50 HTB161

SMILES	IC50 [µg/mL]
COc1cc2ncc(C#N)c(Oc3cccc(Br)c3)c2cc1OC [Example 49, 4-(3-Bromophenoxy)-6,7-dimethoxy-3-quinolinecarbonitrile]	70.6 (≈ 183 µM)

target: T1, Kinase insert Domain containing Receptor (KDR: the catalytic domain of the VEGF receptor) (Homo sapiens, UniProt P35968); assay: Inhibition of Kinase insert Domain containing Receptor (KDR); format: biochemical; conditions: pH 7.2; radioactive format; read-out: KDR IC50 (converted);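 further: KDR phosphorylating a Glu:Tyr 4:1 copolymer with P32- or P33-labelled ATP, Mg++ and vanadate, read as acid-insoluble radiolabel, compared with compound-free reaction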
T1 construct: KDR: the catalytic domain of the VEGF receptor
T1 sequence (P35968 834-1162 limits assumed): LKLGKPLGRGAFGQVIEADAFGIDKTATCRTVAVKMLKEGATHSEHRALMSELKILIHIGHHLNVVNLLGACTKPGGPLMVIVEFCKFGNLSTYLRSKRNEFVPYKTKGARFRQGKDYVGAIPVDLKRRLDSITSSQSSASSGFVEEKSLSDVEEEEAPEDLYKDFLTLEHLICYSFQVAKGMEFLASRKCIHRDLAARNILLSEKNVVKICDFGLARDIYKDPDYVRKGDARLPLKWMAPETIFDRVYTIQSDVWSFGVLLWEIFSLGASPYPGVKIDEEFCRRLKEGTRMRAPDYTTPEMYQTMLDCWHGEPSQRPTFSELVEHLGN
Experimental: In this standard pharmacological test procedure, KDR protein is mixed, in the presence or absence of a inhibitor compound, with a substrate peptide to be phosphorylated (a copolymer of glutamic acid and tyrosine, E:Y :: 4:1) and other cofactors such as Mg^++ and sodium vanadate (a protein tyrosine phosphatase inhibitor) in an appropriate buffer to maintain pH (7.2). ATP and a radioactive tracer (either P^32-or P^33- labeled ATP) is then add to initiate phosphorylation. After incubation, the radioactive phosphate associated with the acid-insoluble fraction of the assay mixture is then quantified as reflection of substrate phosphorylation.

SMILES	IC50 [µM]
COc1cc2ncc(C#N)c(Oc3cccc(Br)c3)c2cc1OC [Example 49, 4-(3-Bromophenoxy)-6,7-dimethoxy-3-quinolinecarbonitrile]	> 77.9

tested on: HCT15; assay: Inhibition of cancer cell growth as measured by cell number, HCT15; format: cell-based; conditions: Homo sapiens, HCT-15, 48 h, read-out: IC50 HCT15

SMILES	IC50 [µg/mL]
COc1cc2ncc(C#N)c(Oc3cccc(Br)c3)c2cc1OC [Example 49, 4-(3-Bromophenoxy)-6,7-dimethoxy-3-quinolinecarbonitrile]	97.4 (≈ 253 µM)

target: recombinant human MEK 1 (MAPKK) and recombinant human ERK2 (MAPK); assay: Mitogen Activated Protein Kinase (MAPK) assay, two component coupled MEK 1 / ERK2; format: biochemical; conditions: separate entries for the same compound = evaluated more than one time;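 further: MEK 1-activated ERK2 phosphorylates MBP or Myc peptide with 33P-ATP, filter capture and scintillation counting, inhibitor preincubated with ERK2 30 min at 0 °C, inhibition relative to uninhibited control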

SMILES	IC50 [µM]
COc1cc2ncc(C#N)c(Oc3cccc(Br)c3)c2cc1OC [Example 49, 4-(3-Bromophenoxy)-6,7-dimethoxy-3-quinolinecarbonitrile]	> 100

tested on: DU145; assay: Inhibition of cancer cell growth as measured by cell number, DU145; format: cell-based; conditions: Homo sapiens, DU-145, 48 h, read-out: IC50 DU145

SMILES	IC50 [µg/mL]
COc1cc2ncc(C#N)c(Oc3cccc(Br)c3)c2cc1OC [Example 49, 4-(3-Bromophenoxy)-6,7-dimethoxy-3-quinolinecarbonitrile]	79.8 (≈ 207 µM)

tested on: HL60; assay: Inhibition of cancer cell growth as measured by cell number, HL60; format: cell-based; conditions: Homo sapiens, HL-60, 48 h, read-out: IC50 HL60

SMILES	IC50 [µg/mL]
COc1cc2ncc(C#N)c(Oc3cccc(Br)c3)c2cc1OC [Example 49, 4-(3-Bromophenoxy)-6,7-dimethoxy-3-quinolinecarbonitrile]	48.4 (≈ 126 µM)

tested on: MCF7; assay: Inhibition of cancer cell growth as measured by cell number, MCF7; format: cell-based, human; conditions: Homo sapiens, MCF7, 48 h, read-out: IC50 MCF7, cell number, Sulforhodamine B, 48 hours exposure; Table 5;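 further: MCF7 was included as a line with little or no EGFR or HER2/neu expression, in contrast to the receptor-overexpressing lines of the panel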
Text: as §1

SMILES	IC50 [µg/mL]
COc1cc2ncc(C#N)c(Oc3cccc(Br)c3)c2cc1OC [Example 49, 4-(3-Bromophenoxy)-6,7-dimethoxy-3-quinolinecarbonitrile]	57.5 (≈ 149 µM)
COc1cc2ncc(C#N)c(Nc3cccc(CO)c3)c2cc1OC [Example 48, 4-[(3-(hydroxymethyl)phenyl)amino]-6,7-dimethoxy-3-quinolinecarbonitrile]	79.3 (≈ 236 µM)

tested on: LOX; assay: Inhibition of cancer cell growth as measured by cell number, LOX; format: cell-based, human; conditions: Homo sapiens, LOX, 48 h, read-out: IC50 LOX, cell number, Sulforhodamine B, 48 hours exposure; Table 6;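 further: LOX cells served as a line with low or absent EGFR and HER2/neu expression, in contrast to receptor-overexpressing lines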
Text: as §1

SMILES	IC50 [µg/mL]
COc1cc2ncc(C#N)c(Oc3cccc(Br)c3)c2cc1OC [Example 49, 4-(3-Bromophenoxy)-6,7-dimethoxy-3-quinolinecarbonitrile]	55.1 (≈ 143 µM)
COc1cc2ncc(C#N)c(Nc3cccc(CO)c3)c2cc1OC [Example 48, 4-[(3-(hydroxymethyl)phenyl)amino]-6,7-dimethoxy-3-quinolinecarbonitrile]	47 (≈ 140 µM)

tested on: MIP; assay: Inhibition of cancer cell growth as measured by cell number, MIP; format: cell-based; conditions: Homo sapiens; cell number, Sulforhodamine B, 48 hours exposure; Table 4; read-out: IC50 MIP

SMILES	IC50 [µg/mL]
COc1cc2ncc(C#N)c(Oc3cccc(Br)c3)c2cc1OC [Example 49, 4-(3-Bromophenoxy)-6,7-dimethoxy-3-quinolinecarbonitrile]	> 100

tested on: CCRF-CFM; assay: Inhibition of cancer cell growth as measured by cell number, CCRF-CFM; format: cell-based; conditions: Homo sapiens, 48 h, read-out: IC50 CCRF-CFM

SMILES	IC50 [µg/mL]
COc1cc2ncc(C#N)c(Oc3cccc(Br)c3)c2cc1OC [Example 49, 4-(3-Bromophenoxy)-6,7-dimethoxy-3-quinolinecarbonitrile]	> 100
COc1cc2ncc(C#N)c(Nc3cccc(CO)c3)c2cc1OC [Example 48, 4-[(3-(hydroxymethyl)phenyl)amino]-6,7-dimethoxy-3-quinolinecarbonitrile]	> 100

tested on: SW620; assay: Inhibition of cancer cell growth as measured by cell number, SW620; format: cell-based, human; conditions: Homo sapiens, SW-620, 48 h, read-out: IC50 SW620, cell number, Sulforhodamine B, 48 hours exposure; Table 4;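 further: SW620 was included as a cell line with little or no EGFR or HER2/neu expression, in contrast to receptor-overexpressing lines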
Text: as §1

SMILES	IC50 [µg/mL]
COc1cc2ncc(C#N)c(Oc3cccc(Br)c3)c2cc1OC [Example 49, 4-(3-Bromophenoxy)-6,7-dimethoxy-3-quinolinecarbonitrile]	> 100
COc1cc2ncc(C#N)c(Nc3cccc(CO)c3)c2cc1OC [Example 48, 4-[(3-(hydroxymethyl)phenyl)amino]-6,7-dimethoxy-3-quinolinecarbonitrile]	> 100

tested on: COLO205; assay: Inhibition of cancer cell growth as measured by cell number, COLO205; format: cell-based; conditions: Homo sapiens, COLO 205, 48 h, read-out: IC50 COLO205

SMILES	IC50 [µg/mL]
COc1cc2ncc(C#N)c(Oc3cccc(Br)c3)c2cc1OC [Example 49, 4-(3-Bromophenoxy)-6,7-dimethoxy-3-quinolinecarbonitrile]	88 (≈ 228 µM)
